{"source": "patent US6448287B1", "about": "(priority 1999, dated 2002)", "key": {"B16 melanoma": {"test_system": "B16 melanoma", "assay": "Murine tumor model: B16 melanoma in C57 mice", "format": "in vivo", "procedure": "C57 mice were divided into groups of twenty and inoculated by B16 melanoma cells subcutaneously. After forty-eight hours, treatments were administered once every other day for a five week period by subcutaneous injection near the tumor site. Tumor size was measured on days ten, seventeen, and twenty-four of treatment. […]"}, "[1]": {"test_system": "SW620 hollow fiber tumors", "quoted_text": "(§3) SW620 hollow fiber solid tumors were grown as previously described. […] SW620 colon carcinoma cells were prepared in cell culture medium at a concentration of 10^7 cells/ml and injected into the hollow fibers. The fibers were then heat sealed at roughly 2 cm intervals to trap the cells inside them. SW620 hollow fibers were then cultured in Petri dishes for three days. After three days, the hollow fibers are transferred to stirred medium either by moving them to spinner flasks containing 50 ml cell culture medium stirred at 150 rpm by a magnetic stirrer or by transferring them to six-well plates placed on an orbital shaker at 150 rpm. Cell culture medium was replenished on days three and six. […] After one or two days incubation on an orbital shaker, the hollow fiber tumors were rinsed and the cells were extruded out of the fibers with trypsin. The cylindrical tumor cell mass was exposed to trypsin while pipetting up and down to form a single cell suspension. Cell culture medium was then added to stop trypsin action. Surviving fractions were determined as previously described. Briefly, cells were transferred to ninety-six-well plates at a concentration of 5000 cells per well and incubated for six days. The surviving cell population was then measured using the SRB colorimetric assay. Surviving fraction was expressed as the ratio of the SRB staining at a given dose to that for cells from untreated hollow fiber tumors.\n(§4) The surviving fractions without ascorbate (denoted SFO) were analyzed along with the doses of ascorbate required to reduce the surviving fraction to half the SFO value, denoted LC50. Standard deviations for SFO and LC50 values were analyzed by the curve-fitting program KalediaGraph (Synergy Software).\n(§5) Data from three replicate experiments were pooled. The doses of ascorbate required to reduce the surviving fraction to half the control value were denoted as LC50. Standard deviations on LC50 values were estimated by the curve-fitting program kaleidaGraph (Synergy Software)."}, "[2]": {"assay": "Toxicity test in cell monolayers, ECV-304", "format": "cell-based", "conditions": "human, ECV-304 endothelial cell monolayer; read-out: LC50", "procedure": "(§1) In solid tumors, proliferating cells are sometimes more sensitive to treatment than quiescent, non-proliferating cells. To investigate this in cell monolayers, we used sparse plating densities (6K/well in a 96 well plate) to allow cell proliferation and confluent densities (24K/well in a 96 well plate) to simulate quiescent cells. Cells were plated in 96 well plates at sparse or confluent densities and then incubated four days in growth medium supplemented with various doses of antioxidants. After incubation, cell numbers were determined by standard […] techniques. Data were analyzed by scaling the cell number at any given antioxidant dose to that of the control and fitting the dose-response data to a sigmoid curve. Values of LC50, the dose required to reduce cell number by fifty percent relative to untreated controls, were computed from the sigmoid data fit."}, "[3]": {"test_system": "SW620 (Colon Adenocarcinoma)", "assay": "Toxicity test in cell monolayers, SW620", "format": "cell-based", "conditions": "Homo sapiens, SW-620, 96 h, lipoic acid as sodium salt", "procedure": "as §1"}, "SK-MEL (Melanoma)": {"test_system": "SK-MEL (Melanoma)", "assay": "Toxicity test in cell monolayers, SK-MEL", "format": "cell-based", "conditions": "Homo sapiens, 96 h, lipoic acid as sodium salt", "procedure": "as §1"}, "[4]": {"test_system": "Mia PaCa (Pancreatic Carcinoma)", "assay": "Toxicity test in cell monolayers, Mia PaCa", "format": "cell-based", "conditions": "Homo sapiens, MIA PaCa-2, 96 h, lipoic acid as sodium salt", "procedure": "as §1"}, "MCF-7 (Breast Carcinoma)": {"test_system": "MCF-7 (Breast Carcinoma)", "assay": "Toxicity test in cell monolayers, MCF-7", "format": "cell-based", "conditions": "Homo sapiens, MCF7, 96 h, lipoic acid as sodium salt", "procedure": "as §1"}, "[5]": {"conditions": "male, human, in vivo, iv", "procedure": "(§2) A person with diagnosed metastatic prostate cancer was infused intravenously with […] sodium ascorbate in sterile water over an eighty minute period. Blood samples were taken at regular intervals over a twenty-four hour period, frozen, and then analyzed for ascorbate content using a colorimetric assay. The ascorbate plasma concentration was analyzed in a prostate cancer patient given a 60 gram intravenous infusion of sodium ascorbate over an 80 minute period. […] The plasma volume Vp, was fixed at 30 dl. […] Predicted plasma ascorbate levels from a two compartment, four parameter pharmacokinetic model of ascorbate transport and clearance in blood. […] Infusion is modeled as continuous. Parameter values for the compartmental model are as follows: KX=0.124 min^−1, K1=0.124 min^−1, K2=0.038 min^−1. The plasma volume Vp, was fixed at 30 dl. A phase one clinical trial is currently under way to assess the safety of continuous ascorbate infusions, and is currently near completion."}, "[6]": {"assay": "Phase one clinical trial of continuous ascorbate infusions (safety)", "conditions": "doses up to 50 g/day", "procedure": "as §2"}, "[7]": {"test_system": "SW620 hollow fiber tumors", "conditions": "hollow fiber solid tumor model, background statement; cited from earlier work"}, "[8]": {"test_system": "SW620 hollow fiber tumors", "assay": "cells", "conditions": "Homo sapiens, SW-620, read-out: ascorbate LC50 (dose reducing surviving fraction to half the control value)", "quoted_text": "as §3, §4, §5"}, "[9]": {"conditions": "humans, intravenous infusion, peak level; cited from earlier work"}}, "note": "Like-named read-outs stand apart in the source and are kept apart here."}
{"smiles": "O=C(O)CCCCC1CCSS1", "note": "(racemic) [Lipoic Acid, DL-α-Lipoic Acid (DL-6,8-Thioctic Acid)]", "values": [{"measurement": "Animal Survival (percent)", "setting": "B16 melanoma; day twenty-four, control 70%", "result": 90, "unit": "%"}, {"measurement": "Animal Survival (survivors/group)", "setting": "B16 melanoma; day twenty-four, groups of twenty, control 14/20", "result": "18/20"}, {"measurement": "tumor size compared with the control group", "setting": "B16 melanoma; measured on days ten, seventeen and twenty-four of treatment", "result": "significantly smaller"}, {"measurement": "toxic effect of lipoic acid itself (surviving fraction without ascorbate, SFO)", "setting": "[1]; lipoic acid 5 mg/dl or 20 mg/dl, 48 hours", "result": "exhibited a toxic effect"}]}
{"smiles": "O=C1O[C@H]([C@@H](O)CO)C(O)=C1O", "note": "[Ascorbate, ascorbic acid]", "values": [{"measurement": "CC50 at 4 days", "setting": "[2]", "result": "1490 ± 160", "unit": "µg/mL"}, {"measurement": "CC50", "setting": "[3]; read-out: LC50, SW620, confluent density (24K/well), four days incubation", "result": "390 ± 140", "unit": "µg/mL"}, {"measurement": "CC50", "setting": "[3]; read-out: LC50, SW620, sparse density (6K/well), four days incubation", "result": "300 ± 40", "unit": "µg/mL"}, {"measurement": "CC50", "setting": "SK-MEL (Melanoma); read-out: LC50, SK-MEL, confluent density (24K/well), four days incubation", "result": "780 ± 160", "unit": "µg/mL"}, {"measurement": "CC50", "setting": "SK-MEL (Melanoma); read-out: LC50, SK-MEL, sparse density (6K/well), four days incubation", "result": "150 ± 20", "unit": "µg/mL"}, {"measurement": "CC50", "setting": "[4]; read-out: LC50, Mia PaCa, confluent density (24K/well), four days incubation", "result": "3080 ± 330", "unit": "µg/mL"}, {"measurement": "CC50", "setting": "[4]; read-out: LC50, Mia PaCa, sparse density (6K/well), four days incubation", "result": "530 ± 60", "unit": "µg/mL"}, {"measurement": "CC50", "setting": "MCF-7 (Breast Carcinoma); read-out: LC50, MCF-7, confluent density (24K/well), four days incubation", "result": "230 ± 30", "unit": "µg/mL"}, {"measurement": "CC50", "setting": "MCF-7 (Breast Carcinoma); read-out: LC50, MCF-7, sparse density (6K/well), four days incubation", "result": "120 ± 10", "unit": "µg/mL"}, {"measurement": "K1", "setting": "[5]", "result": 0.124, "unit": "min⁻¹"}, {"measurement": "K2", "setting": "[5]", "result": 0.038, "unit": "min⁻¹"}, {"measurement": "KX", "setting": "[5]", "result": 0.124, "unit": "min⁻¹"}, {"measurement": "peak plasma value", "setting": "[5]", "result": 460, "unit": "mg/dL"}, {"measurement": "safety of continuous ascorbate infusions", "setting": "[6]", "result": "found safe"}, {"measurement": "surviving fraction", "setting": "[1]; 52 mg/dL ascorbate for forty-eight hours, based on the data in EXAMPLE 2", "result": "greater than ninety percent"}, {"measurement": "ascorbate concentration that may be required to effectively treat tumors", "setting": "[7]", "result": "> 500", "unit": "mg/dL"}, {"measurement": "CC50", "setting": "[8]", "result": 4900, "unit": "µg/mL"}, {"measurement": "maximum plasma ascorbic acid concentration generally achievable", "setting": "[9]", "result": "roughly 500 mg/dL"}]}
